{"source": "paper PMC5556071", "about": "“ATR inhibition facilitates targeting of leukemia dependence on convergent nucleotide biosynthetic pathways” (Nature Communications, 2017)", "system": "CEM cells", "test": "Targeted LC-MS/MS-MRM of de novo and salvage dCTP biosynthesis (nucleotide pools and newly replicated DNA)", "type": "cell-based, human", "set-up": "key to Substrate utilization Glucose / Substrate utilization dC: ↓: partial decrease/inhibition; ↓↓↓: nearly complete inhibition; ↑: increase; ⟷: no change", "procedure": "Cells were transferred into RPMI-1640 without glucose and supplemented with 10% dialyzed FBS (Gibco) containing the following labeled substrates: precursors for de novo [U-^13C6]glucose (Sigma-Aldrich, 389374) at 11 mM; precursors for purine salvage [U-^13C10,^15N5]dA (Cambridge Isotopes, CIL 3896), [^15N5]dA (Cambridge Isotopes, NLM-3895) and [^15N5]dG (Cambridge Isotopes, NLM-3899) at 5 µM or as indicated; and precursors for pyrimidine salvage: [U-^13C9,^15N3]dC (Silantes, 124603602) and [U-^13C10,^15N2]dT (Cambridge Isotopes, CNLM-3902) at 5 µM and [^15N2]orotate (Cambridge Isotopes, NLM-1048) at indicated concentrations. The cells were incubated for 12 h or as indicated before sample collection and processing.\nThe rates of dCTP incorporation into the DNA were determined using linear regression with procedure GLM in SAS (v. 9.4). DNA % label was transformed using a shifted log addition of 1 due to the presence of zeros in the data set. Rates were calculated using the slope of the regression line for the log transformed data and are presented in the table with the associated standard errors, along with the ratio between the rate of incorporation into DNA by the de novo and salvage pathways (Table 1).\nCell cycle synchronization. Cells were treated with a CDK4/6 inhibitor, Pablociclib or PD-0332991 (Selleckchem, S1116) for 18 h to synchronize them in the G1 phase. Subsequently, cells were washed twice with PBS containing 2% FBS (Omega Scientific) and released into fresh media. […]\nClinical Microarray Core on an Illumina HiSeq3000 using the SeqCap EZ Exome Enrichment Kit v3.0 (Roche).\nReads were mapped to UCSC hg19 (bwa-mem), deduplicaed (PicardTools), and subjected to base quality score recalibration and realignment around known indels according to the Broad Institute Genome Analysis Toolkit (GATK) Best Practices v3.0. Variants in genes associated with nucleotide biosynthesis were identified using the GATK HaplotypeCaller, and annotated with Oncotator (http://portals.broadinstitute.org/oncotator/). dNTP sample processing. 0.5 – 1 x 10^6 cells were collected into 1.5 mL microcentrifuge tubes and centrifuged (450 x g, 4 min, 4 °C). The supernatant was carefully aspirated and the cells were washed twice with 1 mL of cold PBS, followed each time by centrifugation (450 x g, 4 min 4 °C). The PBS were aspirated.\nThereafter, the pellets were treated with 10 µL of 10% trifluoroacetic acid with internal standards (1 µM […]\ns, and incubated on ice for 10 min. 40 µL of 500 mM ammonium acetate, pH = 9.3, with the same internal standard (1 µM [15N3]dCMP and [15N3]dCTP) was then added and the samples were vigorously vortexed again for 30 s. The samples were centrifuged (14,000 x g, 10 min, 4 °C) to remove cell debris. The supernatants (~ 40 µL) were transferred into HPLC injector vials. Stock solutions (10 mM) of rCTP, rCDP, dCMP, dCDP, and dCTP (Sigma Aldrich) were prepared individually in water, and stored at –20 °C before use to generate calibration standards. Calibration standards were prepared and mixed together in water with internal standards (1 µM [15N3]dCMP and [15N3]dCTP) to make working stock concentrations in 100 nM – 100 µM range.\nCalibration standards were diluted 10-fold into the same nucleotide extraction solution of 10% TFA/500 mM ammonium acetate (1:4, v/v) with internal standards (1 µM [15N3]dCMP and [15N3]dCTP) to give a final concentration in 10 nM – 10 µM. Nucleotide and calibration samples were processed together to minimize […]\nDNA sample processing. Genomic DNA from 0.5 – 1 x 10^4 cells was extracted using the Quick-gDNA MiniPrep kit (Zymo Research, D3021) and hydrolyzed to nucleosides using the DNA Degradase Plus kit (Zymo Research, E2021), following manufacturer-supplied instructions. In the final step of DNA extraction, 50 µL of […]\nwater was used to elute the DNA into 1.5 mL microcentrifuge tubes. A nuclease solution (5 µL; 10X buffer/DNA Degradase Plus™/water, 2.5/1/1.5, v/v/v) was added to 20 µL of the eluted genomic DNA in an HPLC injector […]\nvial. […]", "key": {"[1]": {"settings": "CEM 12 h, 1 uM VE-822, 1 uM DI-82, 500 nM 3-AP, #1-#3"}, "[2]": {"settings": "CEM after release from G1 arrest"}}, "note": "Values joined by “and” are separate entries in the source; they are usually repeats but may differ in a detail not shown here. Identical values can stand only once."}
{"smiles": "COc1ccc(-c2nc([C@@H](C)Sc3nc(N)cc(N)n3)c(C)s2)cc1OCCNS(C)(=O)=O", "note": "[dCKi]", "values": [{"measurement": "reduction of the amount of free dCTP", "setting": "12 h time point after release from G1 arrest", "result": "~ 50%"}, {"measurement": "% sum abundance, de novo DNA-C, mass increase in nucleobase +0, in deoxyribose +3", "setting": "[1]", "result": "0.18% and 0.19%"}, {"measurement": "% sum abundance, de novo DNA-C, mass increase in nucleobase +0, in deoxyribose +4", "setting": "[1]", "result": "0.58% and 0.55%"}, {"measurement": "% sum abundance, de novo DNA-C, mass increase in nucleobase +0, in deoxyribose +5", "setting": "[1]", "result": "9.50% and 9.45% and 9.86%"}, {"measurement": "% sum abundance, de novo DNA-C, mass increase in nucleobase +1, in deoxyribose +3", "setting": "[1]", "result": 0.00, "unit": "%"}, {"measurement": "% sum abundance, de novo DNA-C, mass increase in nucleobase +1, in deoxyribose +4", "setting": "[1]", "result": "0.09% and 0.07%"}, {"measurement": "% sum abundance, de novo DNA-C, mass increase in nucleobase +1, in deoxyribose +5", "setting": "[1]", "result": "1.18% and 1.24%"}, {"measurement": "% sum abundance, de novo DNA-C, mass increase in nucleobase +2, in deoxyribose +4", "setting": "[1]", "result": "0.053% and 0.05%"}, {"measurement": "% sum abundance, de novo DNA-C, mass increase in nucleobase +2, in deoxyribose +5", "setting": "[1]", "result": "0.82% and 0.79% and 0.87%"}, {"measurement": "% sum abundance, de novo DNA-C, mass increase in nucleobase +3, in deoxyribose +4", "setting": "[1]", "result": 0.00, "unit": "%"}, {"measurement": "% sum abundance, de novo DNA-C, mass increase in nucleobase +3, in deoxyribose +5", "setting": "[1]", "result": "0.20% and 0.19%"}, {"measurement": "% sum abundance, de novo DNA-C, mass increase in nucleobase +4, in deoxyribose +4", "setting": "[1]", "result": 0.00, "unit": "%"}, {"measurement": "% sum abundance, de novo DNA-C, mass increase in nucleobase +4, in deoxyribose +5", "setting": "[1]", "result": 0.00, "unit": "%"}, {"measurement": "% sum abundance, salvage DNA-C, mass increase in nucleobase +5, in deoxyribose +0", "setting": "[1]", "result": 0.00, "unit": "%"}, {"measurement": "% sum abundance, salvage DNA-C, mass increase in nucleobase +5, in deoxyribose +4", "setting": "[1]", "result": 0.00, "unit": "%"}, {"measurement": "% sum abundance, salvage DNA-C, mass increase in nucleobase +5, in deoxyribose +5", "setting": "[1]", "result": 0.00, "unit": "%"}, {"measurement": "% sum abundance, salvage DNA-C, mass increase in nucleobase +6, in deoxyribose +0", "setting": "[1]", "result": 0.00, "unit": "%"}, {"measurement": "% sum abundance, salvage DNA-C, mass increase in nucleobase +6, in deoxyribose +4", "setting": "[1]", "result": 0.00, "unit": "%"}, {"measurement": "% sum abundance, salvage DNA-C, mass increase in nucleobase +6, in deoxyribose +5", "setting": "[1]", "result": 0.00, "unit": "%"}, {"measurement": "% sum abundance, salvage DNA-C, mass increase in nucleobase +7, in deoxyribose +0", "setting": "[1]", "result": 0.00, "unit": "%"}, {"measurement": "% sum abundance, salvage DNA-C, mass increase in nucleobase +7, in deoxyribose +4", "setting": "[1]", "result": 0.00, "unit": "%"}, {"measurement": "% sum abundance, salvage DNA-C, mass increase in nucleobase +7, in deoxyribose +5", "setting": "[1]", "result": "0.07% and 0.09% and 0.0853%"}, {"measurement": "% sum abundance, unlabeled DNA-C, mass increase in nucleobase +0, in deoxyribose +0", "setting": "[1]", "result": "77.58% and 77.11% and 77.29%"}, {"measurement": "% sum abundance, unlabeled DNA-C, mass increase in nucleobase +0, in deoxyribose +1", "setting": "[1]", "result": "4.40% and 4.55% and 4.26%"}, {"measurement": "% sum abundance, unlabeled DNA-C, mass increase in nucleobase +0, in deoxyribose +2", "setting": "[1]", "result": "0.75% and 0.68% and 0.59%"}, {"measurement": "% sum abundance, unlabeled DNA-C, mass increase in nucleobase +1, in deoxyribose +0", "setting": "[1]", "result": "4.14% and 4.45% and 4.26%"}, {"measurement": "% sum abundance, unlabeled DNA-C, mass increase in nucleobase +1, in deoxyribose +1", "setting": "[1]", "result": "0.23% and 0.29% and 0.22%"}, {"measurement": "% sum abundance, unlabeled DNA-C, mass increase in nucleobase +1, in deoxyribose +2", "setting": "[1]", "result": 0.00, "unit": "%"}, {"measurement": "% sum abundance, unlabeled DNA-C, mass increase in nucleobase +2, in deoxyribose +0", "setting": "[1]", "result": "0.23% and 0.31% and 0.29%"}, {"measurement": "% sum abundance, unlabeled DNA-C, mass increase in nucleobase +2, in deoxyribose +1", "setting": "[1]", "result": 0.00, "unit": "%"}, {"measurement": "% sum abundance, unlabeled DNA-C, mass increase in nucleobase +2, in deoxyribose +2", "setting": "[1]", "result": 0.00, "unit": "%"}, {"measurement": "% sum abundance, unlabeled DNA-C, mass increase in nucleobase +3, in deoxyribose +0", "setting": "[1]", "result": 0.00, "unit": "%"}, {"measurement": "% sum abundance, unlabeled DNA-C, mass increase in nucleobase +3, in deoxyribose +1", "setting": "[1]", "result": 0.00, "unit": "%"}, {"measurement": "% sum abundance, unlabeled DNA-C, mass increase in nucleobase +4, in deoxyribose +0", "setting": "[1]", "result": 0.00, "unit": "%"}, {"measurement": "De novo: rate of dCTP incorporation into newly replicated DNA (slope ± standard error of regression line)", "setting": "[2]", "result": "0.23 ± 0.01", "unit": "arbitrary unit"}, {"measurement": "Ratio (salvage/de novo)", "setting": "[2]", "result": 0.082}, {"measurement": "Salvage: rate of dCTP incorporation into newly replicated DNA (slope ± standard error of regression line)", "setting": "[2]", "result": "0.019 ± 0.004", "unit": "arbitrary unit"}, {"measurement": "reduction of dCK activity (contribution of labeled [13C9,15N3]dC to intracellular dCMP)", "setting": "asynchronous CEM, 12 h", "result": "~ 90%"}, {"measurement": "Substrate utilization Glucose", "setting": "summary Fig. 2g, CEM cells", "result": "↑"}, {"measurement": "Substrate utilization dC", "setting": "summary Fig. 2g, CEM cells", "result": "↓↓↓"}]}
